In patent US20250066724A1, “GENERATION OF HUMAN SPINAL CORD NEURAL STEM CELLS” (THE REGENTS OF THE UNIVERSITY OF CALIFORNIA, priority 2023, published 2025):

Columns and labels:
[1] = tested on: neurons differentiated from H9-derived spinal cord NSCs; assay: Whole-cell patch clamp electrophysiology of neurons differentiated from H9-derived spinal cord NSCs; conditions: spontaneous postsynaptic currents, all three drugs
SOX1+/SOX2+/Nestin+ NSCs = assay: Long-term maintenance culture of spinal cord NSCs; assay type: cell-based, human; conditions: due to differentiation, data not shown

Compound | spiking of neuron after glutamate receptor and GABA-A receptor antagonists [1] | culture maintenance over time on omission of the component from maintenance medium (SOX1+/SOX2+/Nestin+ NSCs)
N[C@@H](CCCP(=O)(O)O)C(=O)O [APV] | no change in spiking | 
Cc1c[nH]c(-c2cnc(NCCNc3ccc(C#N)cn3)nc2-c2ccc(Cl)cc2Cl)n1 [CHIR, CHIR99021] |  | failure to sustain cultures
O=[N+]([O-])c1cc2nc(O)c(O)nc2cc1[N+](=O)[O-] [DNQX] | no change in spiking | 
CNC1CCC(N(Cc2cccc(-c3ccncc3)c2)C(=O)c2sc3c(F)ccc(F)c3c2Cl)CC1 (centres unmarked) [Hh-Ag1.5] |  | failure to sustain cultures
picrotoxin | no change in spiking | 
